One block for each compound: values may come before it.
Legend:
[1] = Pharmacokinetic test in rats (IV and PO); type: in vivo, male SD rats
Experimental: This experiment includes the PO group and IV group, with three animals in each group. For the PO group, about 0.25 mL of whole blood was collected from orbital venous plexus before administration, and 15 min, 30 min, 1 h, 2 h, 4 h, 7 h and 24 h after administration, and for the IV group, about 0.25 mL of whole blood was collected from orbital venous plexus before administration, and 5 min, 15 min, 30 min, 1 h, 2 h, 4 h, 7 h and 24 h after administration, which were placed in heparin anticoagulant tube. After the blood collection, the blood collection tubes containing anticoagulant agent was inverted several times to fully mix, and placed on wet ice before centrifugation. Within 60 minutes after blood collection, it was centrifuged at 8000 rpm under 2 to 8° C. for 10 minutes to separate red blood cells and obtain plasma samples. The plasma sample was transferred to a cryogenic tube and stored at −75±15° C. until analysis. 50 μL of the plasma sample was taken and added with 5 μL of acetonitrile:water (1:1, v/v), and added with 200 μL of 0.1% formic acid-acetonitrile, centrifuged (12000 rpm, 15 min); the supernatant was diluted in 1:1 with ultrapure water. The plasma drug concentration was analyzed by using LC-MS/MS method. Microsoft EXCEL was used to statistically describe the experimental data with mean, deviation % and standard deviation (SD). The pharmacokinetic parameters were calculated with WinNonlin 8.1 software. The following pharmacokinetic parameters were calculated: CL (clearance), Vd (apparent volume of distribution), T1/2 (elimination half-life time), Cmax (peak concentration), Tmax (peak time), AUC (area under the blood concentration-time curve), and F % (bioavailability).

[2] = tested on: Human melanoma cell line A375; assay: CellTiter-Glo tumor cell proliferation, A375; type: cell-based; details: Homo sapiens, A-375; CellTiter-Glo, 72 h
In short: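 Cells seeded at 2×10^4/mL, grown 24 h at 37° C, 5% CO2, then treated in triplicate with medium-diluted compound for 72 h. CellTiter-Glo luminescence read after 20 min at 37° C; inhibition versus untreated control RLU, IC50 calculated.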

[3] = tested on: HepG2; assay: MTT antitumor spectrum, HepG2; type: cell-based; details: Homo sapiens, 72 h
Experimental: The activity of compound 30 was evaluated by MTT method against seven tumor cell models, A549, A375, HCT116, MDA-MB-231, HepG2, PC3 and MCF-7. All cells used in the study were prepared at a concentration of 3.5×10^3 cells/mL, and each […] cell suspension was inoculated on a 96-well microtiter plate for 24 hours (37° C., 5% CO2). Then different concentrations of compound 30 were added, incubated for 72 hours; and for the control group, equivalent concentrations of DMSO (final concentration 0.5%) were added. The number of viable cells was measured by MTT (3-(4,5-dimethylthiazol-2-yl)-diphenyl tetrazolium bromide) method, and the OD value at 492/620 nm was recorded. The IC50 value was calculated by Prism-Graphpad software based on the results of triplicate experiments.

[4] = tested on: human liver cancer Bel7404; assay: Antitumor activity in vivo, Bel7404 transplanted in nude mice; design: species or system male BALB/c athymic nude mice; details: for RTV (d22): iv × 5; for Animal weight (g) (After tumor removal) / Inhibition rate %: iv × 5, d22
Experimental: In the test, the Bel7404 models of human liver cancer transplanted into 6-week-old male BALB/c athymic nude mice (purchased from Shanghai Slac Laboratory Animal Co., Ltd.) with body weight of 18-20 g were used to study the anti-tumor effect of compound 30. The dose of compound 30 was 50 mg/kg (30H group), 25 mg/kg (30 M group) and 12.5 mg/kg (30 L group), respectively, and was injected intravenously twice a week for 5 times in total; at the same time, 5-FU was used as the control drug, which was injected intraperitoneally twice a week for 7 times in total (5 mice/group for the compound 30 administration group, 5 mice in 5 FU administration group; 8 mice were used as the mock group). The long diameter a (mm) and the vertical short diameter b (mm) of the tumor were measured twice a week with a digital electronic caliper. The tumor volume calculation formula was TV=ab^2/2; and the relative tumor volume calculation formula was RTV=Vt/Vo, wherein Vo was the tumor volume measured on the first day of administration (d1), and Vt was the tumor volume at each measurement. On the 22nd day of administration (d22), the animals were sacrificed and weighed. The tumor mass was dissected and weighed. The tumor inhibition rate (tumor inhibitory rate, %) was calculated according to the following formula: […]

[5] = male, SD, rat, IV 1 mg/kg, single, plasma
[6] = male, SD, rat, PO 10 mg/kg, single, plasma

SMILES: CC(C)C[C@H](NC(=O)Cn1nc(-c2cccc(OCCN3CCN(c4ccccc4)CC3)c2)cc1-c1ccccc1)B(O)O.Cl [Compound 39, (R)-(3-methyl-1-(2-(5-phenyl-3-(3-(2-(4-phenylpiperazin-1-yl)ethoxy)phenyl)-1H-pyrazol-1-yl)acetamido)butyl)boronic acid hydrochloride]
clearance (in words) ([1]; IV 1 mg/kg): medium clearance
CL_obs ([1]; IV 1 mg/kg, single, plasma, hydrochloride, 1 mg/kg): 21.0 ± 3.4 mL/min/kg
distribution in vivo (in words) ([1]; IV 1 mg/kg, Vd higher than total liquid volume of SD rats): widely distributed in vivo
absorption (in words) ([1]; PO 10 mg/kg): rapid absorption
bioavailability ([1]; male, SD, rat, plasma, PO 10 mg/kg vs IV 1 mg/kg, read-out: F (bioavailability)): 2.42 ± 1.91%
AUC(0-inf) [1, 5]: 807 ± 123 ng·h/mL
AUC(0-t) [1, 5]: 767 ± 117 ng·h/mL
C0 [1, 5]: 846 ± 183 ng/mL
Cmax [1, 5]: 671 ± 124 ng/mL
Tmax [1, 5]: 4.98 min
Vd [1, 5]: 13.9 ± 2.8 L/kg
half-life [1, 5]: 458 ± 18 min
AUC(0-inf) [1, 6]: 191 ± 147 ng·h/mL
AUC(0-t) [1, 6]: 186 ± 147 ng·h/mL
Cmax [1, 6]: 74.8 ± 82 ng/mL
Tmax [1, 6]: 19.8 ± 8.4 min
half-life [1, 6]: 97.8 ± 21.6 min

IC50 [2]: 822 nM
IC50 [3]: 1080 nM
Animal weight (g) (After tumor removal) ([4]; 12.5 mg/kg): 23.11 ± 0.65 g
Animal weight (g) (After tumor removal) ([4]; 25 mg/kg): 21.91 ± 0.56 g
Animal weight (g) (After tumor removal) ([4]; 50 mg/kg): 19.95 ± 0.45 g
SMILES: CC(C)C[C@H](NC(=O)Cn1nc(-c2cccc(OCCN3CCOCC3)c2)cc1-c1ccccc1)B(O)O.Cl [Compound 30, (R)-(3-methyl-1-(2-(3-(3-(2-morpholinoethoxy)phenyl)-5-phenyl-1H-pyrazol-1-yl)-acetamido)butyl)boronic acid hydrochloride]
RTV (d22) ([4]; 12.5 mg/kg): 4.52 ± 1.08
Inhibition rate % ([4]; 12.5 mg/kg): 24.89%
RTV (d22) ([4]; 25 mg/kg): 3.82 ± 0.67
Inhibition rate % ([4]; 25 mg/kg): 36.55%
RTV (d22) ([4]; 50 mg/kg): 2.33 ± 0.59
Inhibition rate % ([4]; 50 mg/kg): 61.29%

Reference: US12473305B2, “Pyrazole boronic acid compound, pharmaceutical composition containing same, and uses thereof” (BEIJING SONGRUN PHARMACEUTICAL TECHNOLOGY CO., LTD., priority 2020, dated 2025)
